Entries after “also recorded” stand apart in the source; their conditions may differ. Where a name gives a salt, the structure may show the parent alone.
Experiments:
[1] = test system: animals exposed to chronic mild stress; test: Chronic mild stress (CMS) model, consumption of 1% sucrose solution; assay type: in vivo, rat; conditions: for effect on sucrose intake one week after cessation of treatments: stressed animals
Description: Male Wistar rats (Charles River, Germany) were brought into the laboratory one month before the start of the experiment. Except as described below, the animals were singly housed with food and water freely available, and were maintained on a 12-h light/dark cycle, in a constant temperature (22±2° C.) and humidity (50±5%) conditions.
After a period of 2 weeks of adaptation to laboratory and housing conditions, the animals were first trained to consume a 1% sucrose solution; training consisted of nine 1 h baseline tests in which sucrose was presented, in the home cage, following 14 h food and water deprivation; the sucrose intake was measured by weighing pre-weighed bottles containing the sucrose solution, at the end of the test. Subsequently, the sucrose consumption was monitored, under similar conditions, at weekly intervals throughout the whole experiment.
On the basis of their sucrose intakes in the final baseline test, the animals were divided into two matched groups. One group of animals was subjected to the chronic mild stress procedure for a period of 8 consecutive weeks. Each week of stress regime consisted of: two periods of food or water deprivation, two periods of 45 degree cage tilt, two periods of intermittent illumination (lights on and off every 2 h), two periods of soiled cage (250 ml water in sawdust bedding), one period of paired housing, two periods of low intensity stroboscopic illumination (150 flashes/min), and three periods of no stress. All stressors were 10-14 h of duration and were applied individually and continuously, day and night. Control animals were housed in separate rooms and had no contact with the stressed animals. They were deprived of food and water for the 14 h preceding each sucrose test, but otherwise food and water were freely available in the home cage.
On the basis of their sucrose intakes following initial 2 weeks of stress, both the stressed and the control groups were each divided further into matched subgroups (n=8), and for subsequent five weeks they received once daily intraperitoneal injections of vehicle (0.5% hydroxypropylmethylcellulose, 1 ml/kg), SON-117 (0.001, 0.01, 0.1 and 1 mg/kg) or imipramine (10 mg/kg) as the reference treatment. The drugs were administered at approx. 10:00 AM and the weekly sucrose tests were carried out 24 h following the last drug injections. After five weeks all treatments were terminated and one additional sucrose test was carried out after one week of withdrawal. Stress was continued throughout the period of treatment and withdrawal.
After completion of the administration and withdrawal period, all control and stressed animals were placed in an open field (100 cm in diameter, 35 cm high) and allowed to explore two identical objects (cylinder-shaped object with walls painted white, 7 cm in diameter, 11 cm high) for the time required to complete 15 s of exploration of either object. For the retention trial conducted one hour later, one of the objects presented previously was replaced with a novel object (prism-shaped object with walls painted black, 5 cm wide, 14 cm high). Rats were returned to the open field for 5 min and the duration of exploration (i.e. sitting in close proximity to the objects, sniffing or touching them) of each object was measured separately by a trained observer. The data were calculated according to the following formula: [time of novel object exploration divided by time of novel plus familiar object exploration multiplied by 100]. The CMS and NOR data were analyzed by multiple analyses of variance with three between-subjects factors (stress/control, drug treatments and intakes in successive sucrose tests). The Fisher's LSD test was used for the post-hoc comparisons of means.

[2] = test system: sleep EEG parameters; test: Polysomnography / sleep EEG study; assay type: in vivo, human
Description: In this study, certain pharmacodynamic sleep parameters predictive of antidepressant activity were monitored and measured. […] Three doses of SON-117 were tested (1 mg, 3 mg, 7.5 mg). […] In an embodiment, SON-117 affected sleep. In an embodiment, SON-117 affected REM sleep.
[…] subjects were tested in a sleep study, where 23 subjects were dosed with SON-117 in amounts of 1 mg up to 7.5 mg; 12 were given a placebo; and 8 were given escitalopram at a dose of 20 mg. Sleep was recorded in individual sound-attenuated and comfortably furnished bedrooms. During bedtime hours subjects were recumbent and the lights are turned off. The polysomnographic montage consisted of 4 EEG channels (C3A2, O1A2, C4A1, and O2A1), bilateral electro-oculograms, and 2 submental electromyograms. The different sleep parameters were derived with the Hypnos software from the visual scoring of the recordings at 30 sec epochs according to Rechtschaffen and Kales (1968) rules. Sleep continuity parameters comprise both sleep initiation and sleep maintenance variables. Sleep architecture parameters, which include REM sleep parameters, comprise stages distribution variables documenting duration and proportion of the different sleep stages and sleep profile variables that provide an outline on the time course of the different sleep stages during the recording period. All night sleep EEG spectral analysis was carried out on the C3-A2 derivation by means a fast Fourrier transform algorithm. Epoch length was 2 seconds at a sampling rate of 256 Hz and truncating error was reduced by applying a Hanning window. Sleep visual scores of each 30-second epoch was synchronised with power density values in order to allow the analysis of power density within in specific period of time such as REM and non REM sleep.

[3] = test system: subjective sleep; test: Leeds Sleep Evaluation Questionnaire (LSEQ); assay type: in vivo, human; conditions: SON-117 1 mg; after single administration, sustained up to day 16
[4] = molecular target: T1, 5-HT1A (Homo sapiens, UniProt P08908); test: Receptor binding, 5-HT1A
T1 sequence (P08908 1-422): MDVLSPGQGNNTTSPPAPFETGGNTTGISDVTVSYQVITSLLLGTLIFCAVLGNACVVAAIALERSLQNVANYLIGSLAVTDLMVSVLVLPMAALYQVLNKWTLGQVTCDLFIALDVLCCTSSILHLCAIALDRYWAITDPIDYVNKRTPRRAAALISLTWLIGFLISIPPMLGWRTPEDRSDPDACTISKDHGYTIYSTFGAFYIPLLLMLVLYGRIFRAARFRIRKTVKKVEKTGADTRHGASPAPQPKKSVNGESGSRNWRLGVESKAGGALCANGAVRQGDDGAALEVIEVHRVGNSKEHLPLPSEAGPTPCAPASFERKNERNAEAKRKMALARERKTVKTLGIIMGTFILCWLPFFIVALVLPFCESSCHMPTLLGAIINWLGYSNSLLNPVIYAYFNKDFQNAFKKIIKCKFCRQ

[5] = molecular target: 5-HT2A (Homo sapiens, UniProt P28223); test: Receptor binding, 5-HT2A
Chain of 5-HT2A (P28223 whole entry): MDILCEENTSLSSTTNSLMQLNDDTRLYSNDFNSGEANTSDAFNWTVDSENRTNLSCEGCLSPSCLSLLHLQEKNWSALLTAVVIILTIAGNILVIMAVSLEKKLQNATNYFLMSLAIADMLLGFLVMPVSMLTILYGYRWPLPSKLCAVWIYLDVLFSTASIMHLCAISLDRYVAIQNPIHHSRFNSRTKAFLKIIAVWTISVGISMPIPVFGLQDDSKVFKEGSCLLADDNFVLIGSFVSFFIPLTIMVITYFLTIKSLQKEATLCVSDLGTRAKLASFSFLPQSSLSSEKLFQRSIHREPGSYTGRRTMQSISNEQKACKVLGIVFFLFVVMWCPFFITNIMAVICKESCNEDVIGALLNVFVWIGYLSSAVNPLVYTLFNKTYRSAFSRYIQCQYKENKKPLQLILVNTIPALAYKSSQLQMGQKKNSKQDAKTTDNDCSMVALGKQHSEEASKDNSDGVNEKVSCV

Compound: Cc1nnc(-c2cc3c(OC[C@@H](O)CN4CCC(c5ccc(Cl)c(Cl)c5)CC4)cccc3o2)o1 [SON-117, (S)-1-(4-(3,4-dichlorophenyl)piperidino)-3-(2-(5-methyl-1,3,4-oxadiazol-2-yl)benzo(b)furan-4-yloxy)-2-propanol hydrochloride]
- dose at which rapid-onset normalization of sucrose intake was observed (as low as) ([1]; CMS model): 1 µg/kg
- effect on sucrose intake one week after cessation of treatments ([1]; SON-117 0.001 mg/kg): maintained
- time at which increase of sucrose consumption in stressed animals reached significance vs Week 0 ([1]; SON-117 0.001 and 0.01 mg/kg IP (only these doses significant vs Week 0)): first week
- onset of action: enhancement of sucrose intakes reached statistical significance ([1]; SON-117 0.001 and 1.0 mg/kg): first week
- effect on sucrose intake one week after cessation of treatments ([1]; SON-117 1 mg/kg): abolished
- effectiveness in the CMS model ([1]; SON-117 0.01 and 0.1 mg/kg): less effective than imipramine
- magnitude of action in the CMS model ([1]; SON-117 most active doses (0.001 and 1.0 mg/kg)): comparable to that of imipramine
- sucrose intake in control animals, compared to vehicle ([1]; once daily IP for five weeks, imipramine 10 mg/kg, SON-117 all doses (0.001, 0.01, 0.1 and 1 mg/kg)): no significant effect
- sucrose consumption in stressed animals, compared to vehicle ([1]; once daily IP for five weeks, imipramine 10 mg/kg, SON-117 all four doses (0.001-1 mg/kg), hydrochloride): significant effects; also recorded: enhanced
- effect of discontinuation of dosing on sleep EEG parameters, including REM sleep ([2]; SON-117): no evidence
- slow wave sleep (SWS) ([2]; SON-117 1 mg, day 1 and day 14, second third of the night, hydrochloride): could increase; also recorded: increased
- REM sleep, REM density/activity ([2]; SON-117 repeated dosing, two highest dosages (3 mg, 7.5 mg), particularly 7.5 mg, hydrochloride): could have REM sleep promoting effect; also recorded: increased
- sleep continuity and sleep architecture parameters ([2]; SON-117 three doses tested (1, 3, 7.5 mg)): largely not influenced
- LSEQ getting to sleep [3]: easier
- LSEQ quality of sleep [3]: improved
- affinity, 5-HT1A receptor binding [4]: high affinity
- affinity, 5-HT2A receptor binding [5]: high affinity
